# PMC11062899, “De novo development of small cyclic peptides that are orally bioavailable” (Nature Chemical Biology, 2023)
# Values joined by “and” are separate entries in the source; they are usually repeats but may differ in a detail not shown here. Equal values may be shown once.
# Tests used:
# [1] = Passive artificial membrane permeability (PAMPA); conditions: for PAMPA permeability: % permeability: 50 μM, 12–18 h, acceptor concentration relative to equilibrium; for Papp at 50 μM / Permeability% Average / Permeability% R1 / Permeability% R3: PAMPA; for Papp at 50 μM: pH 7.4; for Permeability% Average: average of R1-R3; for Permeability% R1: replicate R1; for Permeability% R1 / Permeability% R3: TIC of top well sample relative to sample at theoretical equilibrium; for Permeability% R3: replicate R3
# [2] = Metabolic stability in rat liver microsomes (RLMs); conditions: rat, microsomes
# porcine pancreatin = assay: Peptide stability in simulated intestinal fluid (SIF); assay type: in vitro ADME; conditions: after 8 h vs 0 h (TIC); for SIF stability, Residual peptide Average: average of R1-R3
# In short: (§1)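 Peptide from a 1 mM DMSO stock was added to fluid pre-warmed at 37 °C. SGF was pH 1.2 NaCl with porcine pepsin (0.32 g per 100 ml), and SIF was pH 6.8 potassium phosphate with porcine pancreatin (1 g per 100 ml). Supernatant peptide was quantified by LC–MS, with residual expressed as T1/T0.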
# [3] = as above; assay type: in vitro ADME, porcine; conditions: simulated gi fluid; 8 h, 37 °C, pH 6.8; read-out: Proteolytic stability: SIF (8 h) % remaining
# In short: as §1
# human α-thrombin = human α-thrombin (Homo sapiens, UniProt P00734); assay: Protease inhibition, Ki for human α-thrombin (fluorogenic substrate Z-Gly-Gly-Arg-AMC); assay type: biochemical; conditions: replicates R1-R3
# In short: (§2)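 Ki derived through Cheng–Prusoff from IC50s (four-parameter logistic fit) against activity of peptide-free controls. Product fluorescence was read every 3 min over 30 min at 25 °C, substrate Z-Gly-Gly-Arg-AMC at 50 μM. Enzyme was 2 nM human or 3 nM rat α-thrombin, pH 7.4 buffer.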
# rat α-thrombin = target: T1, rat α-thrombin (Rattus norvegicus, UniProt P18292); assay: Protease inhibition, Ki for rat α-thrombin (fluorogenic substrate Z-Gly-Gly-Arg-AMC); assay type: biochemical; conditions: replicates R1-R3
# T1 construct: rat α-thrombin (Molecular Innovations) were used at final concentrations of 2 nM and 3 nM; purchased Molecular Innovations
# In short: as §2
# porcine pepsin = target: T2, porcine pepsin (Sus scrofa, UniProt P00791); assay: Peptide stability in simulated gastric fluid (SGF); assay type: in vitro ADME; conditions: for SGF stability, Residual peptide Average / SGF stability, Residual peptide: after 8 h vs 0 h (TIC); for SGF stability, Residual peptide Average: average of R1-R3; for SGF stability, Residual peptide: single replicates R1-R3; for remaining at 8 h: simulated gi fluid, 37 °C, pH 1.2, read-out: Proteolytic stability: SGF (8 h) % remaining
# T2 construct: 0.32 g of porcine pepsin (Sigma-Aldrich, P7125) was dissolved under gentle agitation; purchased Sigma-Aldrich P7125
# T2 sequence (P00791 60-385): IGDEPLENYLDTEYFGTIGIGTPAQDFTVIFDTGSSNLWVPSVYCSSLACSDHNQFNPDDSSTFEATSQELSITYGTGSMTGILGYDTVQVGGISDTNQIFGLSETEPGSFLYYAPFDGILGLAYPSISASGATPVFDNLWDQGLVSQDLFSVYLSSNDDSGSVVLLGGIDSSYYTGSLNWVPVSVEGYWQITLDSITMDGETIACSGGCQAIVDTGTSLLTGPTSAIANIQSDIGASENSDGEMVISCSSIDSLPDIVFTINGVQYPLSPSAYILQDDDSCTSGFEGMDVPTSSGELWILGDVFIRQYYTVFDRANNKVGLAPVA
# In short: as §1
# [4] = CL (ul/min/mg protein) R1, RLM CL, replicate R1
# [5] = CL (ul/min/mg protein) R2, RLM CL, replicate R2
# [6] = CL (ul/min/mg protein) R3, RLM CL, replicate R3
# [7] = Half Life (min) R1, RLM metabolic stability, replicate R1, 0-60 min
# [8] = Half Life (min) R2, RLM metabolic stability, replicate R2, 0-60 min
# [9] = Half Life (min) R3, RLM metabolic stability, replicate R3, 0-60 min
# [10] = Metabolic stability: Half life T1/2 (min), RLMs, mean and SD, three measurements
# [11] = Metabolic stability: RLM CL (ul/min/mg), RLMs, mean and SD, three measurements
# [12] = peptide 1.33E+02 uM, slope of proteolytic substrate cleavage over time
structure (smiles),measurement,setting,value
O=C1CCSCc2cccc(n2)CSCCNC(=O)[C@H](CO)NC(=O)[C@@H](NC(=O)c2ccc(Cl)s2)CN1 [compound 17],PAMPA permeability: % permeability,[1],0.86 ± 0.09%
same,Papp at 50 μM,[1],0.0575 ×10⁻⁶ cm/s
same,Permeability% Average,[1],0.9%
same,Permeability% R1,[1],0.87%
same,Permeability% R3,[1],0.95%
same,microsomal CLint,[2]; [4],149 µL/min/mg
same,microsomal CLint,[2]; [5],98.2 µL/min/mg
same,microsomal CLint,[2]; [6],109 µL/min/mg
same,half-life,[2]; [7],9.3 min
same,half-life,[2]; [8],14.1 min
same,half-life,[2]; [9],12.7 min
same,half-life,[2]; [10],12.1 ± 2 min
same,microsomal CLint,[2]; [11],119 ± 22 µL/min/mg
same,"SIF stability, Residual peptide Average",porcine pancreatin,91.77
same,"SIF stability, Residual peptide",porcine pancreatin; single replicates R1-R3,101.93 and 87.06 and 86.31
same,remaining at 8 h,[3],92 ± 9%
same,"Human alpha thrombin inhibition, slope normalized to DMSO",human α-thrombin; peptide 1.02E-03 uM,90.3 and 94.2 and 97.4
same,"Human alpha thrombin inhibition, slope normalized to DMSO",human α-thrombin; peptide 1.04E+00 uM,86.6 and 86.7 and 88.9
same,"Human alpha thrombin inhibition, slope normalized to DMSO",human α-thrombin; peptide 1.27E-04 uM,98.6 and 95.2 and 97.6
same,"Human alpha thrombin inhibition, slope normalized to DMSO",human α-thrombin; peptide 1.30E-01 uM,95.9 and 91.0 and 95.3
same,"Human alpha thrombin inhibition, slope normalized to DMSO",human α-thrombin; [12],25.3 and 29.1 and 30.1
same,"Human alpha thrombin inhibition, slope normalized to DMSO",human α-thrombin; peptide 1.63E-02 uM,109.1 and 94.1 and 96.6
same,"Human alpha thrombin inhibition, slope normalized to DMSO",human α-thrombin; peptide 1.67E+01 uM,56.0 and 55.9 and 56.8
same,"Human alpha thrombin inhibition, slope normalized to DMSO",human α-thrombin; peptide 2.03E-03 uM,98.0 and 93.9 and 96.6
same,"Human alpha thrombin inhibition, slope normalized to DMSO",human α-thrombin; peptide 2.08E+00 uM,93.5 and 81.6 and 87.4
same,"Human alpha thrombin inhibition, slope normalized to DMSO",human α-thrombin; peptide 2.54E-04 uM,96.9 and 93.2 and 95.5
same,"Human alpha thrombin inhibition, slope normalized to DMSO",human α-thrombin; peptide 2.60E-01 uM,93.6 and 91.3 and 95.4
same,"Human alpha thrombin inhibition, slope normalized to DMSO",human α-thrombin; peptide 3.18E-05 uM,97.0 and 94.8 and 95.7
same,"Human alpha thrombin inhibition, slope normalized to DMSO",human α-thrombin; peptide 3.26E-02 uM,97.9 and 92.8 and 96.6
same,"Human alpha thrombin inhibition, slope normalized to DMSO",human α-thrombin; peptide 3.33E+01 uM,44.0 and 43.7 and 42.6
same,"Human alpha thrombin inhibition, slope normalized to DMSO",human α-thrombin; peptide 4.07E-03 uM,98.5 and 94.3 and 98.3
same,"Human alpha thrombin inhibition, slope normalized to DMSO",human α-thrombin; peptide 4.17E+00 uM,81.7 and 78.5 and 82.6
same,"Human alpha thrombin inhibition, slope normalized to DMSO",human α-thrombin; peptide 5.09E-04 uM,98.7 and 85.0 and 98.3
same,"Human alpha thrombin inhibition, slope normalized to DMSO",human α-thrombin; peptide 5.21E-01 uM,102.0 and 91.0 and 92.1
same,"Human alpha thrombin inhibition, slope normalized to DMSO",human α-thrombin; peptide 6.36E-05 uM,94.5 and 96.0 and 100.7
same,"Human alpha thrombin inhibition, slope normalized to DMSO",human α-thrombin; peptide 6.51E-02 uM,96.7 and 92.1 and 95.5
same,"Human alpha thrombin inhibition, slope normalized to DMSO",human α-thrombin; peptide 6.67E+01 uM,31.6 and 30.0 and 31.3
same,"Human alpha thrombin inhibition, slope normalized to DMSO",human α-thrombin; peptide 8.14E-03 uM,98.1 and 93.7 and 96.2
same,"Human alpha thrombin inhibition, slope normalized to DMSO",human α-thrombin; peptide 8.33E+00 uM,74.6 and 70.2 and 71.4
same,"Rat alpha thrombin inhibition, slope normalized to DMSO",rat α-thrombin; [12],11.3 and 13.8 and 8.3
same,"Rat alpha thrombin inhibition, slope normalized to DMSO",rat α-thrombin; peptide 1.67E+01 uM,29.0 and 30.7 and 41.4
same,"Rat alpha thrombin inhibition, slope normalized to DMSO",rat α-thrombin; peptide 2.08E+00 uM,79.8 and 81.7 and 85.5
same,"Rat alpha thrombin inhibition, slope normalized to DMSO",rat α-thrombin; peptide 3.33E+01 uM,17.9 and 19.2 and 22.6
same,"Rat alpha thrombin inhibition, slope normalized to DMSO",rat α-thrombin; peptide 4.17E+00 uM,59.7 and 62.6 and 71.9
same,"Rat alpha thrombin inhibition, slope normalized to DMSO",rat α-thrombin; peptide 6.67E+01 uM,10.8 and 11.8 and 26.2
same,"Rat alpha thrombin inhibition, slope normalized to DMSO",rat α-thrombin; peptide 8.33E+00 uM,44.9 and 46.7 and 59.3
same,"SGF stability, Residual peptide Average",porcine pepsin,97.83
same,"SGF stability, Residual peptide",porcine pepsin,97.70 and 100.05 and 95.74
same,remaining at 8 h,porcine pepsin,98 ± 2%
C[C@@H]1NC(=O)[C@@H](NC(=O)c2ccc(Cl)s2)CNC(=O)CCSCc2cccc(n2)CSCCNC1=O [compound 18],PAMPA permeability: % permeability,[1],2.73 ± 1.02%
same,Papp at 50 μM,[1],0.174 ×10⁻⁶ cm/s
same,Permeability% Average,[1],2.7%
same,Permeability% R1,[1],2.77%
same,Permeability% R3,[1],1.69%
same,microsomal CLint,[2]; [4],117 µL/min/mg
same,microsomal CLint,[2]; [5],96.6 µL/min/mg
same,microsomal CLint,[2]; [6],95.7 µL/min/mg
same,half-life,[2]; [7],11.8 min
same,half-life,[2]; [8],14.3 min
same,half-life,[2]; [9],14.5 min
same,half-life,[2]; [10],13.5 ± 1.2 min
same,microsomal CLint,[2]; [11],103 ± 10 µL/min/mg
same,"SIF stability, Residual peptide Average",porcine pancreatin,98.53
same,remaining at 8 h,[3],99 ± 9%
same,"Human alpha thrombin inhibition, slope normalized to DMSO",human α-thrombin; peptide 1.02E-03 uM,93.1 and 89.2 and 94.7
same,"Human alpha thrombin inhibition, slope normalized to DMSO",human α-thrombin; peptide 1.04E+00 uM,93.7 and 88.7 and 98.8
same,"Human alpha thrombin inhibition, slope normalized to DMSO",human α-thrombin; peptide 1.27E-04 uM,100.2 and 94.8 and 98.1
same,"Human alpha thrombin inhibition, slope normalized to DMSO",human α-thrombin; peptide 1.30E-01 uM,94.8 and 90.7 and 96.5
same,"Human alpha thrombin inhibition, slope normalized to DMSO",human α-thrombin; [12],52.1 and 50.8 and 55.1
same,"Human alpha thrombin inhibition, slope normalized to DMSO",human α-thrombin; peptide 1.63E-02 uM,97.1 and 95.8 and 94.6
same,"Human alpha thrombin inhibition, slope normalized to DMSO",human α-thrombin; peptide 1.67E+01 uM,73.4 and 68.5 and 72.3
same,"Human alpha thrombin inhibition, slope normalized to DMSO",human α-thrombin; peptide 2.03E-03 uM,97.3 and 94.1 and 99.2
same,"Human alpha thrombin inhibition, slope normalized to DMSO",human α-thrombin; peptide 2.08E+00 uM,89.4 and 90.0 and 79.4
same,"Human alpha thrombin inhibition, slope normalized to DMSO",human α-thrombin; peptide 2.54E-04 uM,98.0 and 92.5 and 94.6
same,"Human alpha thrombin inhibition, slope normalized to DMSO",human α-thrombin; peptide 2.60E-01 uM,94.5 and 91.9 and 98.0
same,"Human alpha thrombin inhibition, slope normalized to DMSO",human α-thrombin; peptide 3.18E-05 uM,100.9 and 96.3 and 98.9
same,"Human alpha thrombin inhibition, slope normalized to DMSO",human α-thrombin; peptide 3.26E-02 uM,93.0 and 91.8 and 94.1
same,"Human alpha thrombin inhibition, slope normalized to DMSO",human α-thrombin; peptide 3.33E+01 uM,68.4 and 72.8 and 70.8
same,"Human alpha thrombin inhibition, slope normalized to DMSO",human α-thrombin; peptide 4.07E-03 uM,96.7 and 91.0 and 96.0
same,"Human alpha thrombin inhibition, slope normalized to DMSO",human α-thrombin; peptide 4.17E+00 uM,85.6 and 83.5 and 84.3
same,"Human alpha thrombin inhibition, slope normalized to DMSO",human α-thrombin; peptide 5.09E-04 uM,95.1 and 89.7 and 99.5
same,"Human alpha thrombin inhibition, slope normalized to DMSO",human α-thrombin; peptide 5.21E-01 uM,94.5 and 87.9 and 92.4
same,"Human alpha thrombin inhibition, slope normalized to DMSO",human α-thrombin; peptide 6.36E-05 uM,96.8 and 88.2 and 100.6
same,"Human alpha thrombin inhibition, slope normalized to DMSO",human α-thrombin; peptide 6.51E-02 uM,133.7 and 92.1 and 94.3
same,"Human alpha thrombin inhibition, slope normalized to DMSO",human α-thrombin; peptide 6.67E+01 uM,63.9 and 63.5 and 65.7
same,"Human alpha thrombin inhibition, slope normalized to DMSO",human α-thrombin; peptide 8.14E-03 uM,96.2 (2×) and 90.9
same,"Human alpha thrombin inhibition, slope normalized to DMSO",human α-thrombin; peptide 8.33E+00 uM,81.3 and 78.4 and 82.3
same,"Rat alpha thrombin inhibition, slope normalized to DMSO",rat α-thrombin; [12],32.2 and 38.1 and 17.4
same,"Rat alpha thrombin inhibition, slope normalized to DMSO",rat α-thrombin; peptide 1.67E+01 uM,45.0 and 46.6 and 55.7
same,"Rat alpha thrombin inhibition, slope normalized to DMSO",rat α-thrombin; peptide 2.08E+00 uM,90.4 and 89.1 and 91.4
same,"Rat alpha thrombin inhibition, slope normalized to DMSO",rat α-thrombin; peptide 3.33E+01 uM,47.9 and 19.5
same,"Rat alpha thrombin inhibition, slope normalized to DMSO",rat α-thrombin; peptide 4.17E+00 uM,77.9 and 77.5 and 82.1
same,"Rat alpha thrombin inhibition, slope normalized to DMSO",rat α-thrombin; peptide 6.67E+01 uM,36.2 and 41.8
same,"Rat alpha thrombin inhibition, slope normalized to DMSO",rat α-thrombin; peptide 8.33E+00 uM,63.0 and 63.5 and 66.0
same,"SGF stability, Residual peptide Average",porcine pepsin,99.57
same,"SGF stability, Residual peptide",porcine pepsin,102.25 and 97.75 and 98.72
same,remaining at 8 h,porcine pepsin,100 ± 2%
